Molecular target: MetAP-2 (Homo sapiens, UniProt P50579)
Test: MetAP-2 activity measurement (coupled enzymatic reactions, substrate Met-Arg-Ser)
Format: biochemical
Conditions: Inhibition of MetAP-2; read-out: IC50 enzyme
Description: MetAP-2 Activity Measurement
The MetAP-2 activity is determined by coupling enzymatic reactions. The tripeptide Met-Arg-Ser (MAS) is employed as substrate. The methionine liberated is firstly converted into Metox and H2O2 by L-aminooxidase (AAO).
MetAP-2 activity can be recorded continuously as kinetics. The reaction scheme illustrates that one mol of dianisidineox is formed per mol of methionene. The MetAP-2 enzyme activity can therefore be calculated directly as Δ absorption per time unit. […] of the MetAP-2 activity (mol of Met/time unit) is possible with the aid of the dianisidineox extinction coefficient.
The change in extinction per time unit is depicted graphically and a slope calculation is carried out in the visually linear region of the reaction.

MetAP-2, sequence (P50579 whole entry, species assumed): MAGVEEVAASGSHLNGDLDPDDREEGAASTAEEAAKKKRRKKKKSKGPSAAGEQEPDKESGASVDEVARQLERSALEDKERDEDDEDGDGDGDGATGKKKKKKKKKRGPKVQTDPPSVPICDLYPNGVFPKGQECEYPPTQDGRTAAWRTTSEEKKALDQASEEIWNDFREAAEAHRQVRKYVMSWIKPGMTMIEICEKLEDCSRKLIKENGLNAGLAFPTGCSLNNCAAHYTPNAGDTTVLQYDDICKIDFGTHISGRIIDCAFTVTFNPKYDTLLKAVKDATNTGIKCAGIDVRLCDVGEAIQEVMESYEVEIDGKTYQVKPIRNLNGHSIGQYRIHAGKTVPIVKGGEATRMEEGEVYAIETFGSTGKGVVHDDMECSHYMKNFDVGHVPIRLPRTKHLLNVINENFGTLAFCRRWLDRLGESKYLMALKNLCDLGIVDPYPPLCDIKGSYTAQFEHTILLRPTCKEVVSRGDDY

Row | SMILES | IC50 [nM]
1 | O=C(NCc1cccc(Br)c1)[C@@]1(O)CCN(c2ccc(Br)cc2)C1=O [A29] | 10 to 1000
2 | O=C(NCc1cccc(Br)c1)[C@]1(O)CCN(c2ccc(F)cc2)C1=O [A41] | 1000 to 10000
3 | O=C(NCCc1nnc(C(F)(F)F)o1)[C@@]1(O)CCN(c2ccccc2)C1=O [A15] | > 10000
4 | CCc1nnn(CCNC(=O)[C@]2(O)CCN(c3ccccc3)C2=O)n1 [A42] | > 10000
5 | O=C(NCc1cccc(Br)c1)[C@@]1(O)CCN(c2cccc3ccccc23)C1=O [A71] | 10 to 1000
6 | O=C(NCc1cccc(Cl)c1F)[C@@]1(O)CCN(c2cccc(Cl)c2)C1=O [A57] | 10 to 1000
7 | O=C(NCCc1cccs1)[C@]1(O)CCN(c2ccc(Br)cc2)C1=O [A77] | 1000 to 10000
8 | O=C(NCCc1noc(C2CCCC2)n1)[C@@]1(O)CCN(c2ccccc2)C1=O [A12] | > 10000

Results, then the compound that gave them:

Row | IC50 [nM] | SMILES
9 | 10 to 1000 | CCNC(=O)N1CCc2cc(N3CC[C@](O)(C(=O)NCc4cc(F)cc(Cl)c4)C3=O)ccc21 [A290]
10 | > 10000 | O=C(N1CCCCC1)[C@@]1(O)CCN(c2ccccc2)C1=O [A308]
11 | 10 to 1000 | O=C(NCC1CCCCC1)[C@@]1(O)CCN(c2ccccc2)C1=O [A324]
12 | 10 to 1000 | O=C(NCc1cc(F)cc(Cl)c1)C1(O)CCN(c2ccc3c(cnn3C3CCCCO3)c2)C1=O (stereo not shown) [A279]
13 | 1000 to 10000 | CC(C)OCCCNC(=O)[C@@]1(O)CCN(c2ccccc2)C1=O [A301]
14 | 10 to 1000 | CC(C)n1cc(N2CC[C@](O)(C(=O)NCc3cccc(Cl)c3F)C2=O)cn1 [A200]
15 | 10 to 1000 | C#CC(NC(=O)[C@@]1(O)CCN(c2ccccc2)C1=O)c1ccccc1 (stereo partly shown) [A288]
16 | 1000 to 10000 | O=C(NCCc1cccs1)[C@]1(O)CCN(c2ccc(F)cc2)C1=O [A78]
17 | 10 to 1000 | Cc1nnc(-c2ccc(N3CC[C@](O)(C(=O)NCc4cc(F)cc(Cl)c4)C3=O)cc2)o1 [A267]
18 | 1000 to 10000 | COCCN1CC[C@](O)(C(=O)NCc2cc(F)cc(F)c2)C1=O [A171]
19 | 10 to 1000 | O=C(NCCc1cc(F)cc(Cl)c1)[C@@]1(O)CCN(c2ccc(C(F)(F)F)cc2)C1=O [A233]
